According to patent publication US8507471B2, “Biphenylcarboxamide derivatives as hedgehod pathway modulators” (IRM LLC, priority 2007, dated 2013):

Columns and labels:
[1] = system: lymphoma cells expressing luciferase; assay: Inhibiting Hh pathway abrogates lymphoma expansion in vivo (bioluminescence imaging); set-up: species or system syngeneic C57BL/6 mice; conditions: 50 mg/kg/day
Method: Stroma produced hedgehog ligands are important growth and survival factors for primary lymphoma cells under in-vitro culture conditions. Growth and expansion of lymphoma cells in-vivo is also dependent on Hh signalling. 1e6 lymphoma cells expressing luciferase were injected into syngeneic C57BL/6 mice. […] Luciferase levels were measured by bioluminescence imaging 3 times per week. […] Therefore we conclude that hedgehog pathway inhibition reduces lymphoma growth in mice.

[2] = system: basal cell carcinoma lesions (basaloid nests) in embryonic skin punches; assay: Embryonic skin punch assay (Shh-induced basaloid nests); assay type: cell-based, Ptch+/−-LacZ mice; conditions: Mus musculus, completely blocks the basanoid formation, read-out: EC50 to block basanoid formation
Method: Compounds of the invention are tested from their ability to treat non-melanoma skin cancer, i.e. basal cell carcinoma lesions using the skin punch assay. Mouse embryos from Ptch^+/−-LacZ mice, are collected and killed at late gestation (embryonic day 17.5) and their skins excised. Circular punches (4 mm in diameter are placed in a collagen-coated Transwell (BIOCOAT cell Culture Insert, Becton Dickinson Labware, Bedford, Mass.) and cultured at the air-liquid interface, with the epidermis side facing up. The culture medium contains 5% FBS in DMEM/F12 (3:1) with added epidermal growth factor, insulin, and hydrocortisone. To induce formation of basaloid nests, punches are grown in the presence of 1-2 μg/ml Shh for 4 or more days. Effects of compounds of the invention are tested by adding at the time of Shh addition or after 6 days of Shh pretreatment. Compounds of the invention show full inhibition (preventing lesion formation) at concentrations of 1 μM or less.

Q: Which results are given for Cc1c(C(=O)Nc2ccc(N3C[C@@H](C)O[C@@H](C)C3)nc2)cccc1-c1ccc(OC(F)(F)F)cc1 [Compound 153, N-(6-((2R,6S)-2,6-dimethylmorpholino)pyridin-3-yl)-2-methyl-4′-(trifluoromethoxy)biphenyl-3-carboxamide]?
A: lymphoma cell expansion (full efficacy) [1]: completely blocks lymphoma cell expansion; EC50 [2]: < 200 nM
